Laboratory results from publication PMC7822874, “Chemoprotective antimalarials identified through quantitative high-throughput screening of Plasmodium blood and liver stage parasites” (Scientific Reports, 2021).
Several values for one entry are separate records, joined by “and”; a condition that tells them apart may be missing. Equal values may be shown once. Read-outs that look alike come from different tables or passages of the source.

Columns and labels:
[1] = system: T1, Plasmodium falciparum Dd2-attB-ScDHODH (transgenic line expressing yeast DHODH), asexual blood stages; experiment: organism not typed; design: replicate k of 3 (each line is one of three independent assays; the three lines of one compound and parasite line follow each other)
T1 construct: Dd2-attB-ScDHODH, the transgenic line that expresses yeast DHODH
Procedure: (§1) The overexpression of the fumarate-dependent yeast DHODH confers resistance to compounds that inhibit the parasite mETC, or the parasite DHODH enzyme that depends on ubiquinone provided by the parasite mETC. Assays were performed in three independent assays on a subset of compounds, and differences between the Dd2-attB parental line and the ScDHODH transgenic line were analyzed using two-sided Student’s t-tests.

[2] = system: T2, Plasmodium falciparum Dd2-attB (parental line), asexual blood stages; experiment: microbe, parasite or virus in culture; design: replicate k of 3 (each line is one of three independent assays; the three lines of one compound and parasite line follow each other); conditions: n = 1; for Individual replicates / Log AC50 (M): 72 h; for AC50: Plasmodium falciparum, DD2, 72 h
T2 construct: Dd2-attB, the isogenic parental line
Procedure: as §1

[3] = 72 h; n = 1; read-out: Individual replicates / Log AC50 (converted)
[4] = read-out: Individual replicates / Log AC50 (converted)

SMILES | Individual replicates / Log AC50 (M) ([1]; 72 h, n = 1) | AC50 [1, 3] [µM] | Individual replicates / Log AC50 (M) [2] | AC50 [2, 4] [M] | Individual replicates / Log AC50 (M) ([1]; 72 h; n = 1) | AC50 ([2]; read-out: Individual replicates / Log AC50 (M) (converted))
O=C(Nc1ccccn1)c1ccc(-c2cc(O)c3ncccc3c2)cc1 [NCGC00247739-01] | -4.7986 Log AC50 (M) | 8.94 | -4.9986 Log AC50 (M) and -4.8986 Log AC50 (M) | 7.97e-06 | – | –
Cc1ccc(NCc2ccc(O)c3ncccc23)c(F)c1 [NCGC00184895-01] | -4.7486 Log AC50 (M) | 15.9 | -4.7986 Log AC50 (M) | 1.78e-05 | – | –
COC(=O)c1ccc(O)c2ncc(NC3CCNCC3)cc12 [NCGC00241038-01] | -4.8986 Log AC50 (M) and -5.0986 Log AC50 (M) | 7.1 | -5.1986 Log AC50 (M) and -5.0486 Log AC50 (M) | 8.94e-06 | – | –
Cc1ccc(C(CCN2CCCCC2)c2cc3cccc(C(N)=O)c3[nH]2)cc1 (centres unmarked) [NCGC00389183-01] | -5.3486 Log AC50 (M) and -5.0986 Log AC50 (M) | 5.03 | -5.2486 Log AC50 (M) | 5.03e-06 | – | –
O=C(Nc1ccccc1F)c1ccc(O)c2ncccc12 [NCGC00183800-01] | -5.2986 Log AC50 (M) and -5.0486 Log AC50 (M) | 5.64 | -5.1986 Log AC50 (M) and -5.2486 Log AC50 (M) | 7.1e-06 | – | –
CC(=O)Nc1cccc(-c2csc(Nc3cc(C)ccn3)n2)c1 [NCGC00357426-01] | -4.8486 Log AC50 (M) | – | -4.8486 Log AC50 (M) (2×) and -4.7986 Log AC50 (M) | – | – | –
Oc1ccc(CNc2cccc(F)c2)c2cccnc12 [NCGC00184892-01] | -4.7486 Log AC50 (M) | 17.8 | -4.7486 Log AC50 (M) and -4.8486 Log AC50 (M) | 1.26e-05 | – | –
Cc1ccccc1C(OCCN1CCCCC1)c1cc2nccc(Cl)c2s1 (centres unmarked) [NCGC00481525-01] | -5.0486 Log AC50 (M) | 10 | -5.0486 Log AC50 (M) and -4.9986 Log AC50 (M) | 8.94e-06 | – | –
COC(=O)c1ccc(O)c2ncc(N3CC[C@@H](N)C3)cc12 [NCGC00241044-01] | -5.1986 Log AC50 (M) and -5.0986 Log AC50 (M) | 11.3 | -4.8986 Log AC50 (M) and -5.0486 Log AC50 (M) | 7.1e-06 | – | –
O=C(O)c1ccc(O)c2ncc(-c3ccc(N4CCOCC4)cc3)cc12 [NCGC00241754-01] | – | 14.2 | -4.7986 Log AC50 (M) | 1.59e-05 | – | –
O=C(CCc1ccccc1)NC(c1cccs1)c1cc(Cl)c2cccnc2c1O (centres unmarked) [MLS000703748-02] | – | 3.99 | -5.4486 Log AC50 (M) | 3.99e-06 | -5.3986 Log AC50 (M) | –
Cc1ccccc1C(OCCN1CCCCC1)c1cc2nccc(B(O)O)c2s1 (centres unmarked) [NCGC00481524-01] | – | 15.9 | -4.8486 Log AC50 (M) and -4.7986 Log AC50 (M) | 1.42e-05 | -4.7986 Log AC50 (M) | –
CCCCOC(=O)c1ccnc2cc(C(OCCN3CCCCC3)c3ccccc3C)sc12 (centres unmarked) [NCGC00481621-01] | -4.7986 Log AC50 (M) | 14.2 | -5.0986 Log AC50 (M) and -5.0486 Log AC50 (M) | 8.94e-06 | – | –
COC(=O)c1ccc(O)c2ncc(N(C)C)cc12 [NCGC00189506-01] | -5.0486 Log AC50 (M) | 14.2 | -5.0986 Log AC50 (M) and -5.1486 Log AC50 (M) | 7.97e-06 | – | –
Oc1ccc(CNc2ccc(C(F)(F)F)cc2F)c2cccnc12 [NCGC00184889-01] | – | 17.8 | – | 2e-05 | – | –
N#CNC(=O)c1ccnc2cc(C(OCCN3CCCCC3)c3ccccc3Cl)sc12 (centres unmarked) [NCGC00483126-01] | -4.7986 Log AC50 (M) | 15.9 | -4.8986 Log AC50 (M) and -4.7486 Log AC50 (M) | 1.42e-05 | – | –
CCCN1CCCc2cc(CN(CCCN3CCOCC3)C(=O)Nc3ccc(Cl)c(Cl)c3)ccc21 [NCGC00140597-02] | -5.3986 Log AC50 (M) and -5.0986 Log AC50 (M) | 3.99 | -5.3486 Log AC50 (M) and -5.2986 Log AC50 (M) | 3.99e-06 | – | –
CC1(C)OB(c2ccc(O)c3ncc(N4CCNCC4)cc23)OC1(C)C [NCGC00241053-01] | -5.0486 Log AC50 (M) and -4.9986 Log AC50 (M) | 7.1 | -4.8986 Log AC50 (M) and -5.0486 Log AC50 (M) | 8.94e-06 | – | –
CN(C)[S+](=O)([O-])c1cccc(-c2cc(O)c3ncccc3c2)c1 [NCGC00247754-01] | -5.2986 Log AC50 (M) and -5.1486 Log AC50 (M) | 5.03 | -5.2986 Log AC50 (M) | 5.64e-06 | – | –
Oc1ccc(Oc2ccccc2F)c2cccnc12 [NCGC00184907-01] | -4.8986 Log AC50 (M) and -4.9486 Log AC50 (M) | 14.2 | -4.9986 Log AC50 (M) and -5.0486 Log AC50 (M) | 8.94e-06 | – | –
COC(=O)c1ccc(O)c2ncc(-c3ccc(C(=O)NCCCN(C)C)cc3)cc12 [NCGC00189510-01] | -4.7986 Log AC50 (M) and -5.1486 Log AC50 (M) | – | -5.1486 Log AC50 (M) and -5.1986 Log AC50 (M) | 7.97e-06 | – | –
Oc1ccc(CNc2ccc(F)cc2Cl)c2cccnc12 [NCGC00184893-01] | -4.7986 Log AC50 (M) | 14.2 | -4.7986 Log AC50 (M) and -4.8486 Log AC50 (M) | 1.59e-05 | – | –

SMILES | Individual replicates / Log AC50 (M) ([1]; 72 h, n = 1) | AC50 [1, 3] [µM] | Individual replicates / Log AC50 (M) [2] | AC50 [2, 4] [M] | Individual replicates / Log AC50 (M) ([1]; 72 h; n = 1) | AC50 ([2]; read-out: Individual replicates / Log AC50 (M) (converted))
COc1ccnc(NCc2ccc(O)c3ncccc23)c1 [NCGC00241023-01] | – | 12.6 | -4.7986 Log AC50 (M) | 1.59e-05 | -4.8986 Log AC50 (M) | –
Oc1ccc(CNc2ccc(F)cc2F)c2cccnc12 [NCGC00184894-01] | -4.8486 Log AC50 (M) | 17.8 | -4.9486 Log AC50 (M) and -5.0486 Log AC50 (M) | 1.42e-05 | – | –
Oc1ccc(NCc2ccccc2F)c2cccnc12 [NCGC00184883-01] | -5.0986 Log AC50 (M) | 12.6 | -5.0986 Log AC50 (M) and -5.0486 Log AC50 (M) | 1.26e-05 | – | –
CN1CCN(C2CCN(Cc3ccc(O)c4ncccc34)CC2)CC1 [NCGC00183373-01] | – | 15.9 | – | 1.78e-05 | – | –
Cc1ccc(C(CCN2CCCCC2)c2cc3cccc(C(=O)O)c3[nH]2)cc1 (centres unmarked) [NCGC00389137-01] | -5.3486 Log AC50 (M) and -5.0486 Log AC50 (M) | – | -5.5486 Log AC50 (M) and -5.3986 Log AC50 (M) and -5.1486 Log AC50 (M) | – | – | –
CC(C)OC(=O)c1ccnc2cc(C(OCCN3CCCCC3)c3ccccc3Cl)sc12 (centres unmarked) [NCGC00481510-01] | -5.0986 Log AC50 (M) | 8.94 | -5.1986 Log AC50 (M) | 7.1e-06 | – | –
CN1CCC(CNCc2nccc3c(=O)[nH]c(COc4ccc(Cc5ccccc5)cc4)nc23)C1 (centres unmarked) [NCGC00489856-02] | – | – | -4.7486 Log AC50 (M) | – | – | –
Cc1nn2c(c1-c1ccccc1-c1ccccc1)N(Cc1ccccc1)CCC2 [NCGC00420451-02] | – | – | – | 1.59e-05 | – | –
Cc1nnc2c3ccccc3nc(N3CCN(c4ccccc4)CC3)n12 [NCGC00107295-02] | – | – | -4.8986 Log AC50 (M) and -4.9986 Log AC50 (M) | – | – | –
O=C(O)c1ccc(O)c2ncc(N3CCN(Cc4ccccc4)CC3)cc12 [NCGC00241045-04] | – | – | -4.6986 Log AC50 (M) and -4.7986 Log AC50 (M) (2×) | – | – | –
O=C(NCCCN1CC[S+](=O)([O-])CC1)c1cccc(-c2cc(O)c3ncccc3c2)c1 [NCGC00249378-01] | – | 20 | – | – | -4.6986 Log AC50 (M) | –
CN1CCN(c2cnc3c(O)ccc(C(=O)O)c3c2)CC1 [NCGC00241033-01] | – | – | -4.8986 Log AC50 (M) and -4.9486 Log AC50 (M) | 1.78e-05 | – | –
Cc1cccc(N2CCN(C(=O)Cn3ncc4c3-c3ccccc3OC4)CC2)c1C [NCGC00112661-02] | – | – | – | 1.42e-05 | – | –
CN(C)CCCCCCNC(=O)c1cccc(-c2cc(O)c3ncccc3c2)c1 [NCGC00247743-01] | – | – | – | 2e-05 | – | –
c1ccc(CN2CCCn3ncc(-c4ccccc4-c4ccccc4)c32)cc1 [NCGC00499205-01] | – | – | -4.8486 Log AC50 (M) | 1.59e-05 | – | –
NC(=O)c1csc(-n2cc(Cc3ccc([S+](N)(=O)[O-])cc3)c(-c3cccc(-c4ccccc4)c3)n2)n1 [NCGC00390757-01] | – | – | -4.9986 Log AC50 (M) and -4.8486 Log AC50 (M) | 2e-05 | – | –
O=C(c1ccccc1F)N1c2nc(-c3ccco3)nn2C2(CCCCC2)[C@@H]2CCCC[C@@H]21 [NCGC00118206-02] | – | – | -4.7986 Log AC50 (M) | 1.59e-05 | – | –
O=C(NC1CC1)c1cccc(-c2cc(O)c3ncccc3c2)c1 [NCGC00247738-01] | – | – | – | – | – | 1.78e-05
Cc1nn2c(c1-c1ccnn1C(C)C)N(CCCc1ccccc1)CCC2 [NCGC00499719-01] | – | 17.8 | – | – | – | –
O=C(O)c1ccc(O)c2ncc(N3CCCCC3CCc3ccccn3)cc12 (centres unmarked) [NCGC00241756-01] | – | – | – | 2e-05 | – | –
c1ccc(CCn2nc(-c3cnccn3)nc2CCCN2CCCCC2)cc1 [NCGC00390063-01] | – | – | – | 7.97e-06 | – | –
